Assay results from patent publication US20240085429A1, “ALTERING PROTEIN FUNCTION BY PHARMACOLOGICAL TARGETING OF MEMBRANE DOMAINS” (University of Virginia Patent Foundation, priority 2021, published 2024).

Test system: GPMVs isolated from HeLa cells
Assay: High-throughput screen of the Cayman bioactive lipid library for effects on GPMV phase behavior (% phase separated vesicles, NBD-DSPE phase preference)
Set-up: species or system human
Details: HeLa GPMVs, RT; for Effect on Pang(ϕ): NBD-DSPE raft phase preference; for Effect on Pang(ϕ) / % phase separated z-score / Pordered z-score: final 1 μM; for % phase separated z-score / Pordered z-score: Table 4; for Pordered z-score: NBD-DSPE; for Effect on % phase separated vesicles: final drug concentration 1 μM, NBD-DSPE channel
Method: This approach is not practical for high throughput screening applications, which typically are performed at a single temperature. Changes in the percentage of phase-separated GPMVs were monitored at a single temperature in response to the addition of small molecules as a surrogate for measuring Tmisc directly (FIG. 1A). This approach requires that a significant fraction of GPMVs are phase separated under control conditions, such that experimentally-induced changes can be readily detected.
In phase separated vesicles these markers are enriched in their preferred domains, such that a given vesicle contains a co-existing NBD-DSPE-rich phase and a DiD-rich phase. In contrast, NBD-DSPE and DiD colocalize in a single uniform phase in GPMVs that are not phase separated. We also optimized conditions to isolate and plate GPMVs in multi-well plates.
To provide proof-of-concept, the Cayman lipid library containing ˜850 bioactive lipid-like compounds in the Vanderbilt High-throughput Screening Facility was screened, using […] of each compound across three independent screens. All screens were carried out using an automated microscope/high-content imaging system and robotic plate handler at RT. […] Compounds were initially scored based on their capacity to alter the percentage of phase separated vesicles (FIG. 2A).
HeLa cells were obtained from ATCC (cat #CCL-2) and cultured at 37° C. in 5% CO2 in a humidified tissue culture incubator. […] In brief, cells were plated in 150 mm tissue culture dishes the day before the experiment, to yield a confluence of 70-80% the day of the experiment. To generate GPMVs, cells were rinsed twice in 10 ml of GPMV buffer (2 mM DTT, 25 mM formaldehyde, 150 mM NaCl, 10 mM HEPES, 2 mM CaCl2), pH=7.4) and subsequently incubated in 12 ml of GPMV buffer at 37° C. with gentle shaking at 70 rpm for 1.5 h. The raft marker NBD-DSPE (1,2-distearoyl-sn-glycero-3-phosphoethanolamine-N-(7-nitro-2-1,3-benzoxadiazol-4-yl; Avanti Polar Lipids) and the non-raft marker DiD (1,1′-dioctadecyl-3,3,3′,3′-tetramethylindodicarbocyanine perchlorate; cat #D307 Thermo Scientific) were added from stock solutions in ethanol to the GPMV suspension at final concentrations of 5-6 μg/ml and 1 μg/ml, respectively, for the initial screenings. For some experiments, cells were prelabelled with 5 μg/ml DiD for 8 min at 4° C. and washed several times prior to GPMVs generation. Screening was performed the same day that GPMVs were generated.
[…] GPMVs suspension in GPMV buffer was then added to each well of a 96-well plate to obtain a final drug concentration of 1 μM. The GPMVs were allowed to settle to the bottom of the plates for 1.5 h prior to imaging. Samples were prepared and imaged at RT. The screen was repeated on three different days using three separately prepared batches of GPMVs (3 biological replicates).
Image acquisition was performed with an ImageXpress Micro XL automated microscope (Molecular Devices) using a Nikon 40X 0.6 NA Super Plan Fluor ELWD objective and a Lumencor Sola solid-state light source. Laser autofocus was employed at each site to obtain the best focus z-plane for each channel. […] Sixteen sites were captured per well using a 4.2 MP widefield scientific cMOS camera with a camera binning of 1. Each plate took approximately 1.3 h to image. Multiple plates were loaded to a plate carousel (ThermoScientific), shuttled to/from the ImageXpress via a ThermoScientific CRS F3 robot arm, and automatically run through the Momentum scheduling software (Thermo). To analyze the data, images and metadata were exported as TIFF files and subjected to image analysis using a custom MATLAB-based program as described below.

Compound | Effect on Pang(ϕ) | % phase separated z-score | Pordered z-score | Effect on % phase separated vesicles
CCCCCCCCCCCCCCCCOC[C@H](COP(=O)([O-])OCC[N+](C)(C)C)OC [2-O-methyl PAF C-16, 1-O-hexadecyl-2-O-methyl-sn-glyceryl-3-phosphorylcholine] | ↑ | −1.06 | 2.68 | –
CCCCCCCCCCCCCCCCOCC(COP(=O)([O-])OCC[N+](C)(C)C)SC(C)=O (stereo not shown) [2-thio-PAF, 1-O-hexadecyl-2-deoxy-2-thio-S-acetyl-sn-glyceryl-3-phosphorylcholine] | – | −3.15 | −0.72 | ↓
Cl.c1cc(N2CCNCC2)c2cnccc2c1 [8-piperazin-1-yl-Isoquinoline (hydrochloride)] | – | 2.14 | 1.61 | ↑
CCCCC/C=C\C/C=C\CCCCCCCCCC(=O)O [11(Z),14(Z)-Eicosadienoic Acid] | – | −2.15 | −0.46 | ↓
CCCCCCCC/C=C\CCCCCCCC(=O)OC[C@@H](COP(O)(O)=S)OC.CCN(CC)CC.CCN(CC)CC [(2S)-OMPT, 9Z-octadecenoic acid, (2S)-3-[(hydroxymercaptophosphinyl)oxy]-2-methoxypropyl ester, triethyl ammonium salt (1:2)] | – | −2.12 | −0.27 | ↓
CCCCC/C=C\C/C=C\C/C=C\C/C=C\CCCC(=O)NCCF [Arachidonoyl-2′-Fluoroethylamide] | ↑ | 1.90 | 2.38 | –
CCCCCCCCCCCCC/C=C/[C@@H](O)[C@H](CO)NC(=O)CCCCCCC [C8 Ceramide (d18:1/8:0)] | – | −2.87 | −0.72 | ↓
CCCCCCCCCCCC1NC(C(=O)O)CS1 (stereo not shown) [CAY10444, 2-undecyl-thiazolidine-4-carboxylic acid] | ↓ | −1.61 | −2.04 | –
CC1(COc2ccc(CC3SC(=O)NC3=O)cc2)CCCCC1 (stereo not shown) [Ciglitazone] | – | −2.73 | −1.71 | –
COc1ccc(-c2nc(C(=O)N3CCN(C)CC3)sc2-c2ccc(OC)cc2)cc1.Cl [FR122047 (hydrochloride), 1-[[4,5-bis(4-methoxyphenyl)-2-thiazolyl]carbonyl]-4-methyl-piperazine, monohydrochloride] | ↓ | 0.12 | −2.03 | –
CC(C)c1ccc2c(c1)c(SC(C)(C)C)c(CC(C)(C)C(=O)O)n2Cc1ccc(Cl)cc1 [MK-886, 1-[(4-chlorophenyl)methyl]-3-[(1,1-dimethylethyl)thio]-α,α-dimethyl-5-(1-methylethyl)-1H-indole-2-propanoic acid] | ↑ | 0.67 | 2.10 | –
CCCCCCCCCCCCCCCCOC[C@H](COP(=O)([O-])OCC[N+](C)(C)C)OC(=O)NC [Methylcarbamyl PAF C-16] | ↑ | −0.58 | 2.20 | –
CCCCCCCCCCCCC/C=C/[C@@H](O)[C@H](CO)N(C)C [N,N-Dimethylsphingosine (d18:1)] | – | −2.09 | −0.70 | ↓
CCCCCCCCCCCCCCCC(=O)NCCS(=O)(=O)O [N-Palmitoyl Taurine] | – | 2.19 | 1.66 | ↑
CCCCCCCCCCCCCCCCCC(=O)NCCS(=O)(=O)O [N-Stearoyl Taurine] | ↑ | 3.21 | 2.89 | ↑
C=C(C)[C@@H]1CCC(C)=C[C@H]1c1c(C)cc(O)cc1O [O-1602, 5-methyl-4-[(1R,6R)-3-methyl-6-(1-methylethenyl)-2-cyclohexen-1-yl] -1,3-benzenediol] | – | −2.10 | −0.27 | ↓
CCCCCCCC/C=C\CCCCCCCC(=O)N[C@H](CO)c1ccc(O)cc1 [OMDM-1, (S)-N-(1-(4-hydroxyphenyl)-2-hydroxyethyl) oleamide] | – | −2.62 | −0.54 | ↓
CCCCCCCCCCCCCCCCOC[C@H](COP(=O)([O-])OCC[N+](C)(C)C)OC(C)=O [PAF C-16, 1-O-hexadecyl-2-O-acetyl-sn-glyceryl-3-phosphorylcholine] | – | −2.00 | 1.87 | ↓
Br.CCSC(=N)N [S-ethyl Isothiourea (hydrobromide)] | ↑ | 0.85 | 2.57 | –
CN(C)S(=O)(=O)c1ccc2c(c1)C(=Cc1cc3c([nH]1)CCCC3)C(=O)N2 [SU6656, 2,3-dihydro-N,N-dimethyl-2-oxo-3-[(4,5,6,7-tetrahydro-1H-indol-2-yl)methylene]-1H-indole-5-sulfonamide] | – | −2.06 | −0.42 | ↓
CCCCCCCCCCCCCCOc1ccc(C(=O)O)o1 [TOFA, 5-(Tetradecyloxy)-2-furancarboxylic acid] | – | −3.41 | −1.20 | ↓
O=c1[nH]c(-c2ccc(C(F)(F)F)cc2)nc2c1CSCC2 [XAV939, 3,5,7,8-tetrahydro-2-[4-(trifluoromethyl)phenyl]-4H-thiopyrano[4,3-d]pyrimidin-4-one] | – | 2.33 | 0.58 | ↑
COc1ccc(/C=C\c2cc(OC)cc(OC)c2)cc1 [cis-trismethoxy Resveratrol] | – | −2.45 | −1.61 | ↓
CCCCCCCCCCCCCCCCSP(=O)([O-])OCC[N+](C)(C)C [thio-Miltefosine] | ↑ | 2.12 | 2.78 | ↑
(−)-Epigallocatechin Gallate | – | 4.33 | 1.42 | ↑
